Test results reported in patent publication US12240840B2, “Amide-substituted heterocyclic compounds for the treatment of conditions related to the modulation of IL-12, IL-23 and/or IFN-alpha” (BRISTOL-MYERS SQUIBB COMPANY, priority 2018, dated 2025).

Each molecule was assayed on IFNα-induced pSTAT5 (pY694) in CD3 positive cells of human whole blood (assay: IFNα-Induced STAT Phosphorylation in Human Whole Blood). Settings: Homo sapiens, 1 h compound incubation, 1000 U/mL recombinant human IFNα A/D for 15 min, pSTAT5 in CD3 positive population, read-out: Human WB IFNα-Induced Stat Phosph. (IC50).
Format: cell-based
Method: IFNα-Induced STAT Phosphorylation in Human Whole Blood
After an hour long incubation with compound, human whole blood (drawn with either EDTA or ACD-A as anti-coagulant) was stimulated with 1000 U/mL recombinant human IFNα A/D (R&D Systems 11200-2) for 15 min. The stimulation was stopped by adding Fix/Lyse buffer (BD 558049). Cells were stained with a CD3 FITC antibody (BD 555916), washed, and permeabilized on ice using Perm III buffer (BD 558050). Cells were then stained with an Alexa-Fluor 647 pSTAT5 (pY694) antibody (BD 612599) for 30 min prior to analysis on the FACS Canto II. The amount of pSTAT5 expression was quantitated by median fluorescence intensity after gating on the CD3 positive population.
IFNα-Induced STAT Phosphorylation in Human Whole Blood Inhibition Data ND—no data available

| Structure (SMILES) | IC50 |
| --- | --- |
| [2H]C([2H])([2H])NC(=O)c1nnc(NC(=O)C2CC2)cc1Nc1cccc(-c2nc(C3(NC(C)=O)CC3)no2)c1OC [Example 165] | 530 nM |
| [2H]C([2H])([2H])NC(=O)c1nnc(NC(=O)C2CC2)cc1Nc1cccc(-c2cc(C(=O)NCC3CCN(C)C3)n(C)n2)c1OC (stereo not drawn) [Example 528] | 840 nM |
| [2H]C([2H])([2H])NC(=O)c1nnc(NC(=O)C2CC2)cc1Nc1cccc(-c2nc(CN3CCN(C(=O)OC(C)(C)C)CC3)no2)c1OC [Example 135] | 2010 nM |
| [2H]C([2H])([2H])NC(=O)c1nnc(NC(=O)C2CC2)cc1Nc1cccc(-c2cc(C)n(CCN)n2)c1OC [Example 462] | 4450 nM |
| [2H]C([2H])([2H])NC(=O)c1nnc(NC(=O)C2CC2)cc1Nc1cccc(-c2ncc(C(=O)N3CCC(N4CCCCC4)CC3)s2)c1OC [Example 351] | 60 nM |
| [2H]C([2H])([2H])NC(=O)c1nnc(NC(=O)C2CC2)cc1Nc1cccc(-c2noc(C(=O)NCCOC)n2)c1OC [Example 19] | 250 nM |
| [2H]C([2H])([2H])NC(=O)c1cnc(NC(=O)C2CC2)cc1Nc1cc(F)cc(-c2cc(C(=O)N(C)C)n(C)n2)c1OC [Example 456] | 60 nM |
| [2H]C([2H])([2H])NC(=O)c1nnc(NC(=O)C2CC2)cc1Nc1cccc(-c2ncc(C(=O)N3CC(=O)NC(=O)C3)s2)c1OC [Example 331] | 560 nM |
| COc1c(Nc2cc(NC(=O)C3CC3)nnc2C(N)=O)cccc1-c1noc([C@@H]2C[C@@H](O)CN2S(C)(=O)=O)n1 [Example 11] | 21 nM |
| [2H]C([2H])([2H])NC(=O)c1nnc(NC(=O)C2CC2)cc1Nc1cccc(-c2cc(C(=O)N3CCC(N4CCN(CCO)CC4)CC3)n(C)n2)c1OC [Example 524] | 3400 nM |
| COc1c(Nc2cc(NC(=O)C3CC3)nnc2C(N)=O)cccc1-c1noc(CNS(=O)(=O)C2CC2)n1 [Example 49] | 50 nM |
| [2H]C([2H])([2H])NC(=O)c1nnc(NC(=O)C2CC2)cc1Nc1cccc(-c2ncc(C(=O)NCCC(C)C)s2)c1OC [Example 305] | 220 nM |
| [2H]C([2H])([2H])NC(=O)c1nnc(NC(=O)C2CC2)cc1Nc1cccc(-c2nc(C3(NC(=O)OC(C)(C)C)CC3)no2)c1OC [Example 150] | > 10000 nM |
| [2H]C([2H])([2H])NC(=O)c1nnc(NC(=O)C2CC2)cc1Nc1cccc(-c2ncc(C(=O)N3CCNC(=O)C3C)s2)c1OC (stereo not drawn) [Example 336] | 260 nM |
| [2H]C([2H])([2H])NC(=O)c1nnc(NC(=O)C2CC2)cc1Nc1cccc(-c2nc([C@@H](NC(=O)OC(C)(C)C)[C@@H](C)OC(C)(C)C)no2)c1OC [Example 185] | > 10000 nM |
| [2H]C([2H])([2H])NC(=O)c1nnc(NC(=O)C2CC2)cc1Nc1cccc(-c2nc([C@@H](NC(=O)OC)[C@@H](C)O)no2)c1OC [Example 188] | 1270 nM |
| COc1c(Nc2cc(NC(=O)C3CC3)nnc2C(N)=O)cccc1-c1ncc(C(=O)N2CCC(CCO)CC2)o1 [Example 416] | 460 nM |
| [2H]C([2H])([2H])NC(=O)c1nnc(Nc2ccc(C)nn2)cc1Nc1cccc(-c2ncc(CO)s2)c1OC [Example 393] | 180 nM |
| COCCN1CCN(Cc2cnc(-c3cccc(Nc4cc(NC(=O)C5CC5)nnc4C(N)=O)c3OC)s2)CC1 [Example 399] | 180 nM |
| [2H]C([2H])([2H])NC(=O)c1nnc(NC(=O)C2CC2)cc1Nc1cccc(-c2cc(C(=O)N3CCC(N(C)C)CC3)n(C)n2)c1OC [Example 529] | 200 nM |
| COc1c(Nc2cc(NC(=O)C3CC3)nnc2C(N)=O)cccc1-c1noc(CN2CCN(S(C)(=O)=O)CC2)n1 [Example 40] | 12 nM |
| [2H]C([2H])([2H])NC(=O)c1nnc(NC(=O)C2CC2)cc1Nc1cccc(-c2ncc(NC(=O)OC(C)(C)C)s2)c1OC [Example 281] | > 10000 nM |
| [2H]C([2H])([2H])NC(=O)c1nnc(NC(=O)C2CC2)cc1Nc1cccc(-c2ncc(C(=O)N3C[C@@H](C)O[C@@H](C)C3)s2)c1OC [Example 275] | 150 nM |
| [2H]C([2H])([2H])NC(=O)c1nnc(NC(=O)C2CC2)cc1Nc1cccc(-c2nc([C@H](CO)NC(=O)CC)no2)c1OC [Example 198] | 1650 nM |
| [2H]C([2H])([2H])NC(=O)c1nnc(NC(=O)C2CC2)cc1Nc1cccc(-c2nc(CN3CCN(C(=O)C=C)CC3)no2)c1OC [Example 129] | 260 nM |
| [2H]C([2H])([2H])NC(=O)c1nnc(NC(=O)C2CC2)cc1Nc1cccc(-c2nc(CN(C)C(=O)OC(C)(C)C)no2)c1OC [Example 167] | 2420 nM |
| [2H]C([2H])([2H])NC(=O)c1nnc(NC(=O)C2CC2)cc1Nc1cccc(-c2noc(C(CC)C(=O)NCCOC)n2)c1OC (stereo not drawn) [Example 41] | 60 nM |
| [2H]C([2H])([2H])NC(=O)c1nnc(NC(=O)C2CC2)cc1Nc1cccc(-c2nc(CN3CCN(C(=O)CC#N)CC3=O)no2)c1OC [Example 139] | 410 nM |
| [2H]C([2H])([2H])NC(=O)c1nnc(NC(=O)C2CC2)cc1Nc1cccc(-c2cc(C(=O)NCC34CCN(CC3)CC4)n(C)n2)c1OC [Example 504] | > 10000 nM |
| COc1c(Nc2cc(NC(=O)C3CC3)nnc2C(N)=O)cccc1-c1noc([C@H](C)N(C)S(C)(=O)=O)n1 [Example 51] | 160 nM |

Continued, values first:

| IC50 | Structure (SMILES) |
| --- | --- |
| 1310 nM | [2H]C([2H])([2H])NC(=O)c1nnc(NC(=O)C2CC2)cc1Nc1cccc(-c2nc(CNC(=O)COC)no2)c1OC [Example 152] |
| 30 nM | [2H]C([2H])([2H])NC(=O)c1cnc(NC(=O)C2CC2)cc1Nc1cccc(-c2noc(CN3CCCS3(=O)=O)n2)c1OC [Example 97] |
| > 10000 nM | [2H]C([2H])([2H])NC(=O)c1nnc(NC(=O)C2CC2)cc1Nc1cccc(-c2ncc(C(=O)NCC(C)C)s2)c1OC [Example 310] |
| 110 nM | [2H]C([2H])([2H])NC(=O)c1nnc(NC(=O)C2CC2)cc1Nc1cccc(-c2ncc(C(=O)N3CCC(CCOC)CC3)s2)c1OC [Example 325] |
| > 10000 nM | [2H]C([2H])([2H])NC(=O)c1nnc(NC(=O)C2CC2)cc1Nc1cccc(-c2nc([C@H](NC(=O)OC(C)(C)C)[C@H](C)OC(C)(C)C)no2)c1OC [Example 206] |
| 30 nM | [2H]C([2H])([2H])NC(=O)c1nnc(NC(=O)C2CC2)cc1Nc1cccc(-c2ncc(C(=O)NCCN3CCCC3)s2)c1OC [Example 301] |
| 660 nM | [2H]C([2H])([2H])NC(=O)c1nnc(NC(=O)C2CC2)cc1Nc1cccc(-c2nc(CN(CCOC)CCOC)no2)c1OC [Example 175] |
| > 10000 nM | [2H]C([2H])([2H])NC(=O)c1nnc(NC(=O)C2CC2)cc1Nc1cc(F)cc(-c2cc(C(=O)NCCCCC)n(C)n2)c1OC [Example 513] |
| 70 nM | [2H]C([2H])([2H])NC(=O)c1nnc(NC(=O)C2CC2)cc1Nc1cccc(-c2ncc(C(=O)NC[C@H]3CCCN3CC)s2)c1OC [Example 330] |
| 23 nM | COc1c(Nc2cc(NC(=O)C3CC3)nnc2C(N)=O)cccc1-c1noc(CN2CCCS2(=O)=O)n1 [Example 68] |
| 290 nM | [2H]C([2H])([2H])NC(=O)c1nnc(NC(=O)C2CC2)cc1Nc1cc(F)cc(-c2cc(C(=O)N3CCC(N(C)C)CC3)n(C)n2)c1OC [Example 515] |
| 820 nM | COc1c(Nc2cc(N)nnc2C(N)=O)cccc1-c1noc(CN2CCOCC2)n1 [Example 107] |
| 570 nM | [2H]C([2H])([2H])NC(=O)c1nnc(Nc2ccc(OC)nn2)cc1Nc1cccc(-c2ncc(CN)s2)c1OC [Example 389] |
| 820 nM | [2H]C([2H])([2H])NC(=O)c1nnc(Nc2ccc(OC)nn2)cc1Nc1cccc(-c2ncc(CNC(=O)OC)s2)c1OC [Example 391] |
| 2320 nM | [2H]C([2H])([2H])NC(=O)c1nnc(NC(=O)C2CC2)cc1Nc1cccc(-c2ccn(CCN(C[C@H](O)CC)C[C@@H](O)CC)n2)c1OC [Example 475] |
| 160 nM | [2H]C([2H])([2H])NC(=O)c1nnc(NC(=O)C2CC2)cc1Nc1cccc(-c2ncc(C(=O)N3CCC3C)s2)c1OC (stereo not drawn) [Example 328] |
| 1410 nM | COc1c(Nc2cc(N)nnc2C(N)=O)cccc1-c1ncc(C(=O)NCCC2CCCN2C)s1 (stereo not drawn) [Example 377] |
| 180 nM | [2H]C([2H])([2H])NC(=O)c1nnc(NC(=O)C2CC2)cc1Nc1cccc(-c2ncc(N)s2)c1OC [Example 282] |
| 70 nM | [2H]C([2H])([2H])NC(=O)c1nnc(NC(=O)C2CC2)cc1Nc1cccc(-c2ncc(C(=O)NCC(C)CN(C)C)s2)c1OC (stereo not drawn) [Example 352] |
| 300 nM | [2H]C([2H])([2H])NC(=O)c1nnc(NC(=O)C2CC2)cc1Nc1cccc(-c2nc(CN3CCN(C(=O)C4CC4)CC3)no2)c1OC [Example 132] |
| 9420 nM | [2H]C([2H])([2H])NC(=O)c1nnc(NC(=O)C2CC2)cc1Nc1cccc(-c2nc(CNC(=O)CN3CCN(C(=O)OC(C)(C)C)CC3)no2)c1OC [Example 161] |
| 30 nM | [2H]C([2H])([2H])NC(=O)c1nnc(NC(=O)C2CC2)cc1Nc1cccc(-c2noc(CN3CCN(S(C)(=O)=O)CC3)n2)c1OC [Example 15] |
| 160 nM | [2H]C([2H])([2H])NC(=O)c1nnc(NC(=O)C2CC2)cc1Nc1cccc(-c2ncc(C(=O)N(C)C(C)C)s2)c1OC [Example 292] |
| 120 nM | CCC(C(=O)NCCOC)c1nc(-c2cccc(Nc3cc(NC(=O)C4CC4)nnc3C(N)=O)c2OC)no1 (stereo not drawn) [Example 56] |
| 350 nM | [2H]C([2H])([2H])NC(=O)c1nnc(NC(=O)C2CC2)cc1Nc1cccc(-c2nc(CCO)no2)c1OC [Example 225] |
| 16 nM | COc1c(Nc2cc(NC(=O)C3CC3)nnc2C(N)=O)cccc1-c1noc(CN(C)S(=O)(=O)C2CC2)n1 [Example 9] |
| 130 nM | [2H]C([2H])([2H])NC(=O)c1nnc(NC(=O)C2CC2)cc1Nc1cccc(-c2noc([C@H](C)O)n2)c1OC [Example 84] |
